Assay results: PubChem BioAssay AID1337 (NMMLSC, 2008); call rule not given here

target: Ras-related protein Rab-2A (Canis lupus familiaris) (UniProt P61105); assay: potency of blocking fluorescent GTP on Rab2A – biochemical, GST-Rab2 beads, Bodipy-FL-GTP, flow cytometry, multiplex, dose response (AID 1337); details: Bead-bound GST-Rab2 wt, Bodipy-FL-GTP binding

EC50, active:
COC(=O)c1c(N2C(=O)[C@H]3[C@@H](C2=O)[C@]2(C(=O)Nc4c(C)cc(C)cc42)N2CCC[C@@H]32)sc(C)c1C 1.99 µM
O=[N+]([O-])c1cc2oc3c(c2c(C=NCc2ccccc2)c1O)CCCC3 4.02 µM
OC(CNCCC1C=Nc2ccccc21)Cn1c2ccc(Cl)cc2c2cc(Cl)ccc21 (stereo not drawn) 26.3 µM
